According to US20230390215A1 (AgoneX Biopharmaceuticals, Inc., priority 2021, published 2023):

Key:
[1] = test system: subject suffering from migraine headaches
Procedure: The patch is applied to the subject's skin for 4 hours. […] The size of the patch can vary from ¼ inch by ¼ inch to 1 inch by 1 inch depending on the desired dosage to be administered.
A subject suffering from migraine headaches is administered a 2″×2″ patch with a gel concentration of 30 μg/ml over a 24 hour period.
A subject suffering from migraine headaches is administered a 2″×2″ patch with a gel concentration of 2.7 μg/ml over a 24 hour period.

[2] = test system: subject suffering from Alzheimer's disease; settings: Example 4: transdermal patch, 10 μg/mL, applied every day for two hours a day over a month
Procedure: A subject suffering from Alzheimer's disease is treated with a transdermal patch as described herein. […] The treatment regimen occurred over the course of a month.

Cl.Cl.NCCc1c[nH]cn1 [histamine dihydrochloride]
migraine events ([1]; Example 3: transdermal patch comprising 30 μg/mL, applied to skin for 4 hours during a migraine event): treated or reduced
migraine headaches (intensity and duration) ([1]; Example 6: 2″×2″ patch, gel concentration 2.7 μg/ml, 24 hour period): reduced in both intensity and duration
Alzheimer's disease symptoms [2]: treated or reduced
